Where a name gives a salt, the structure may show the parent alone. Read-outs that look alike come from different tables or passages of the source.
Legend:
Assay in all cases: biochemical
[1] = molecular target: T1, MMP-1 (Homo sapiens, UniProt P03956); conditions: read-out: MMP-1 IC50
T1 construct: made in house; host or cells: transfected HT-1080 cells (provided by Dr. Harold Welgus, Washington University)
T1 sequence (P03956 100-469): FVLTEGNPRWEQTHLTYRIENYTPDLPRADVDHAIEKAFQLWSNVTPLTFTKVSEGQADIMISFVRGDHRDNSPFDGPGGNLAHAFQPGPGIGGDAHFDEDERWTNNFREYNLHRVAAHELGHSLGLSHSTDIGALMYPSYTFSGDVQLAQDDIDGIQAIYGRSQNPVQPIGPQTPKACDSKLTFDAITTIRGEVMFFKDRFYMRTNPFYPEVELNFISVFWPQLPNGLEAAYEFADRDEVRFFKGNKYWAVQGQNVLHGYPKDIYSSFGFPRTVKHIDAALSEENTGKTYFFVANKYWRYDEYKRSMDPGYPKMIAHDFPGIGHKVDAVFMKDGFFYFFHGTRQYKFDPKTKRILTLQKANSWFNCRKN
Experimental: (§1) The compounds prepared in the manner described in the Examples above were assayed for activity by an in vitro assay. […] Briefly, 4-aminophenylmercuric acetate (APMA) or trypsin-activated MMPs were incubated with various concentrations of the inhibitor compound at room temperature for 5 minutes.
(§2) The expressed enzyme was purified first over a heparin agarose column and then over a chelating zinc chloride column. The proenzyme was activated by APMA for use in the assay.
(§3) MMP-1 expressed in transfected HT-1080 cells was provided by Dr. Harold Welgus of Washington University, St. Louis, Mo. The enzyme was also activated using APMA and was then purified over a hydroxamic acid column. Dr. Welgus also provided transfected HT-1080 cells that expressed MMP-9. Transfected cells that expressed MMP-2 were provided by Dr. Gregory Goldberg, also of Washington University. Studies with MMP-7 were carried out at pH 7.5 in the presence of 0.02% 2-mercaptoethanol using conditions otherwise similar to those used for the other enzymes. The enzyme was obtaind from a hMMP-7-expressing E. coli clone that was a gift of Dr. Steven Shapiro of Washington University, St. Louis, Mo. Further specifics for preparation and use of these enzymes can be found in the scientific literature describing these enzymes. See, for example, Enzyme Nomenclature, Academic Press, San Diego, Calif. […] The enzyme substrate is a methoxycoumarin-containing polypeptide having the following sequence:
(§4) MCA-ProLeuGlyLeuDpaAlaArgNH2, wherein MCA is methoxycoumarin and Dpa is 3-(2,4-dinitrophenyl)-L-2,3-diaminopropionyl alanine.
(§5) The buffer used for assays contained 100 mM Tris-HCl, 100 mM NaCl, 10 mM CaCl2 and 0.05 percent polyethyleneglycol (23) lauryl ether at a pH value of 7.5. Assays were carried out at room temperature, and dimethyl sulfoxide (DMSO) at a final concentration of 1 percent was used to dissolve inhibitor compound.
(§6) The assayed inhibitor compound in DMSO/buffer solution was compared to an equal amount of DMSO/buffer with no inhibitor as control using Microfluor White Plates (Dynatech). The inhibitor or control solution was maintained in the plate for 10 minutes and the substrate was added to provide a final concentration of 4 μM.
(§7) Inhibition was measured as a reduction in fluorescent intensity as a function of inhibitor concentration, using a Perkin Elmer L550 plate reader. The IC50 values were calculated from those values. The results are set forth in the Inhibition Table A, below, reported in terms of IC50 to three significant figures, where appropriate.

[2] = molecular target: T2, MMP-13 (Homo sapiens, UniProt P45452); conditions: recombinant human MMP-13, MCA peptide substrate 4 μM, pH 7.5, room temperature
T2 construct: made in house; host or cells: baculovirus / insect cells
Experimental: as §1, §2, §3, §4, §5, §6, §7

[3] = molecular target: T3, MMP-2 (Homo sapiens, UniProt P08253)
T3 construct: made in house; provided by Dr. Gregory Goldberg, Washington University
T3 sequence (P08253 110-660): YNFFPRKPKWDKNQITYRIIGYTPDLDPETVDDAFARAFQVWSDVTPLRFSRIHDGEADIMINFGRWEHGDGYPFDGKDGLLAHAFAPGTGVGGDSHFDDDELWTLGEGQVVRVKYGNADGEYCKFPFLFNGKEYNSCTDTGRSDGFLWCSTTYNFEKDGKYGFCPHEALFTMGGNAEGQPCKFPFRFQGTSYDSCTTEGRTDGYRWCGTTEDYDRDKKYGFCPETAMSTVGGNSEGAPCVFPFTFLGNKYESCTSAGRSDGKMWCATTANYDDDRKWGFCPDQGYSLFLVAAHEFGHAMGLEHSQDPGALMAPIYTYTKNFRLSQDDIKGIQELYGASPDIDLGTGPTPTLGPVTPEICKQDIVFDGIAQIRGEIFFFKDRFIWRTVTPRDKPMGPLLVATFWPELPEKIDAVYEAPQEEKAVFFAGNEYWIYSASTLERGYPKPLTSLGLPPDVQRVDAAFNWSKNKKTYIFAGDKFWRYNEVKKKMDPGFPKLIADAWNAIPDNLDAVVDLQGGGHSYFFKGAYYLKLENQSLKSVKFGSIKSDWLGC
Experimental: as §1, §2, §3, §4, §5, §6, §7

[4] = recombinant human MMP-1, MCA peptide substrate 4 μM, pH 7.5, room temperature
[5] = recombinant human MMP-2, MCA peptide substrate 4 μM, pH 7.5, room temperature, read-out: MMP-2 IC50

SMILES	IC50 [1, 4]	IC50 ([2]; read-out: MMP-13 IC50)	IC50 [3, 5]	IC50 ([2]; MMP-13 IC50 (nM))	IC50 ([3]; MMP-2 IC50 (nM))	IC50 [1]
N#Cc1cc(F)cc(OC2CCN(c3ccc(S(=O)(=O)C4(C(=O)NO)CCOCC4)cc3)CC2)c1 [Example 474]	> 10000 nM	12.1 nM	300 nM	–	–	–
O=C(NO)C1(S(=O)(=O)c2ccc(N3CCC(Oc4ccccc4F)CC3)cc2)CCOCC1 [Example 547]	> 10000 nM	5 nM	64.7 nM	–	–	–
COC1CCCN(c2ccc(S(=O)(=O)C3(C(=O)NO)CCOCC3)cc2)C1 (centres unmarked) [Example 524]	> 10000 nM	2700 nM	6400 nM	–	–	–
O=C(Nc1ccc(C(F)(F)F)cc1)N1CCC(C(=O)NO)(S(=O)(=O)c2ccc(Oc3ccc(C(F)(F)F)cc3)cc2)CC1 [Example 141]	> 10000 nM	20 nM	9 nM	–	–	–
O=C(Nc1c(F)cccc1F)N1CCC(C(=O)NO)(S(=O)(=O)c2ccc(Oc3ccc(OC(F)(F)F)cc3)cc2)CC1 [Example 361]	5000 nM	0.5 nM	< 0.1 nM	–	–	–
COCCN1CCC(C(=O)NO)(S(=O)(=O)c2ccc(N3CCC(C(=O)Nc4ccccc4)CC3)cc2)CC1 [Example 236, N-Hydroxy-1-(2-methoxyethyl)-4-[[4-[4-[(phenylamino)carbonyl]-1-piperidinyl]phenyl]-sulfonyl]-4-piperidinecarboxamide Monohydrochloride)]	> 10000 nM	–	–	9 nM	400 nM	–
O=C(NO)C1(S(=O)(=O)c2ccc(N3CCN(c4ccccc4F)CC3)cc2)CCOCC1 [Example 83]	3100 nM	2.7 nM	–	–	21.1 nM	–
CC1CC(C)CN(C(=O)C2CCN(c3ccc(S(=O)(=O)C4(C(=O)NO)CCN(C(=O)CN5CCC(C(N)=O)CC5)CC4)cc3)CC2)C1 (centres unmarked) [Example 300]	> 10000 nM	37.3 nM	> 10000 nM	–	–	–
O=C(NO)C1(S(=O)(=O)c2ccc(N3CCC4CCCCC4C3)cc2)CCOCC1 (centres unmarked) [Example 692]	> 10000 nM	10 nM	22.7 nM	–	–	–
CC(C)(Cl)CC(=O)C1CCN(c2ccc(S(=O)(=O)C3(C(=O)NO)CCOCC3)cc2)CC1 [Example 760]	> 10000 nM	6 nM	25.4 nM	–	–	–
CC(C)OCc1ccc(COC2CCN(c3ccc(S(=O)(=O)C4(C(=O)NO)CCOCC4)cc3)CC2)cc1 [Example 554]	> 10000 nM	3.7 nM	140 nM	–	–	–
O=C(CCCCNCc1ccncc1)N1CCC(C(=O)NO)(S(=O)(=O)c2ccc(Oc3ccc(C(F)(F)F)cc3)cc2)CC1 [Example 340]	> 10000 nM	0.3 nM	< 0.1 nM	–	–	–
CONCC(=O)N1CCC(C(=O)NO)(S(=O)(=O)c2ccc(N3CCC(C(=O)N4CC(C)CC(C)C4)CC3)cc2)CC1 (centres unmarked) [Example 312]	> 10000 nM	200 nM	> 10000 nM	–	–	–
O=C(NO)C1(S(=O)(=O)c2ccc(Oc3ccc(OC(F)(F)F)cc3)cc2)CCN(S(=O)(=O)C(F)(F)F)CC1 [Example 197]	> 10000 nM	2.7 nM	< 0.1 nM	–	–	–
O=C(NO)C1(S(=O)(=O)c2ccc(Oc3ccncc3)cc2)CCSCC1 [Example 151]	> 10000 nM	270 nM	290 nM	–	–	–
CS(=O)(=O)N1CCCN(C2CCN(c3ccc(S(=O)(=O)C4(C(=O)NO)CCOCC4)cc3)CC2)CC1 [Example 815]	> 10000 nM	140 nM	1400 nM	–	–	–
O=C(NO)C1(S(=O)(=O)c2ccc(OC3CCCC(OCc4ccccc4Cl)C3)cc2)CCOCC1 (centres unmarked) [Example 666]	> 10000 nM	48.4 nM	330 nM	–	–	–
O=C(NO)C1(S(=O)(=O)c2ccc(N3CCC(OCc4ccc(COc5ccccc5)cc4)CC3)cc2)CCOCC1 [Example 613]	> 10000 nM	8 nM	30.7 nM	–	–	–
COc1cccc(COC2CCC(Oc3ccc(S(=O)(=O)C4(C(=O)NO)CCOCC4)cc3)C2)c1 (centres unmarked) [Example 694]	> 10000 nM	3.1 nM	23.2 nM	–	–	–
Cc1ccc(C(=O)C2CCN(c3ccc(S(=O)(=O)C4(C(=O)NO)CCOCC4)cc3)CC2)cc1F [Example 736]	> 10000 nM	0.9 nM	145 nM	–	–	–
Cc1cccc(C(=O)C2CCN(c3ccc(S(=O)(=O)C4(C(=O)NO)CCOCC4)cc3)CC2)c1 [Example 653]	> 10000 nM	0.8 nM	160 nM	–	–	–
O=C(NO)C1(S(=O)(=O)c2ccc(N3CCC(c4ccccc4O)CC3)cc2)CCOCC1 [Example 825]	–	11.3 nM	–	–	70 nM	> 10000 nM
Cc1ccccc1N1CCN(c2ccc(S(=O)(=O)C3(C(=O)NO)CCOCC3)cc2)CC1 [Example 536]	> 10000 nM	7.7 nM	88 nM	–	–	–
CCc1cccc([C@@H](C)C2CCN(c3ccc(S(=O)(=O)C4(C(=O)NO)CCOCC4)cc3)CC2)c1 [Example 831]	> 10000 nM	2.3 nM	170 nM	–	–	–
O=C(c1ccccc1)C1CCN(c2ccc(S(=O)(=O)C3(C(=O)NO)CCOCC3)cc2)CC1 [Example 656]	> 10000 nM	3.1 nM	120 nM	–	–	–
O=C(c1ccc2ccccc2c1)C1CCN(c2ccc(S(=O)(=O)C3(C(=O)NO)CCOCC3)cc2)CC1 [Example 844]	–	5 nM	4700 nM	–	–	> 10000 nM
C[C@@H]1CN(C(=O)C2CCN(c3ccc(S(=O)(=O)C4(C(=O)NO)CCOCC4)cc3)CC2)C[C@H](C)N1 [Example 46]	–	–	–	–	5700 nM	> 10000 nM
